Measured values: patent publication US8957045B2, “Nucleoside phosphoramidates” (Gilead Pharmasset LLC, priority 2008, dated 2015)
Where two headings read alike, the source gives them in different places.

Assays:
[1] = tested on: HCV replicon RNA-containing Huh7 cells (clone A cells); assay: HCV replicon assay; assay type: cell-based; details: 4 days incubation, replicon RNA by RT-PCR, EC90 = 1-log10 reduction (ΔCt of 3.3), read-out: CloneA EC90
Procedure: HCV replicon RNA-containing Huh7 cells (clone A cells; Apath, LLC, St. Louis, Mo.) were kept at exponential growth in Dulbecco's modified Eagle's medium (high glucose) containing 10% fetal bovine serum, 4 mM L-glutamine and 1 mM sodium pyruvate, 1× nonessential amino acids, and G418 (1,000 μg/ml). Antiviral assays were performed in the same medium without G418. Cells were seeded in a 96-well plate at 1,500 cells per well, and test compounds were added immediately after seeding. Incubation time 4 days. At the end of the incubation step, total cellular RNA was isolated (RNeasy 96 kit; Qiagen). Replicon RNA and an internal control (TaqMan rRNA control reagents; Applied Biosystems) were amplified in a single-step multiplex RT-PCR protocol as recommended by the manufacturer. The HCV primers and probe were designed with Primer Express software (Applied Biosystems) and covered highly conserved 5′-untranslated region (UTR) sequences (sense primer: 5′-AGCCATGGCGTTAGTA(T)GAGTGT-3′ (SEQ ID NO:1); antisense primer: 5′-TTCCGCAGACCΔCTATGG-3′ (SEQ ID NO:2); and probe: 5′-FAM-[…]-TAMRA-3′ (SEQ ID NO:3)).
To express the antiviral effectiveness of a compound, the threshold RT-PCR cycle of the test compound was subtracted from the average threshold RT-PCR cycle of the no-drug control (ΔCtHCV). A ΔCt of 3.3 equals a 1-log 10 reduction (equal to the 90% effective concentration [EC90]) in replicon RNA levels. The cytotoxicity of the test compound could also be expressed by calculating the ΔCTRNA values. The ΔΔCt specificity parameter could then be introduced (ΔCtHCV-ΔCtRNA), in which the levels of HCV RNA are normalized for the rRNA levels and calibrated against the no-drug control.

Structure (SMILES) | EC90 [1] [µM] | EC90 ([1]; Hepatitis C virus, Huh-7, 96 h) [µM] | melting point [°C]
COC(=O)[C@H](C)NP(=O)(OC[C@H]1O[C@@H](n2cnc3c(N4CCC4)nc(N)nc32)[C@](C)(F)[C@@H]1O)Oc1ccccc1 (stereo partly shown) [Compound 12] | 0.07 |  | 
COc1nc(N)nc2c1ncn2[C@@H]1O[C@H](COP(=O)(N[C@@H](C)C(=O)OC(C)C)Oc2ccccc2)[C@@H](O)[C@@]1(C)F (stereo partly drawn) [Compound 11, (2S)-isopropyl 2-((((2R,3R,4R,5R)-5-(2-amino-6-methoxy-9H-purin-9-yl)-4-fluoro-3-hydroxy-4-methyltetrahydrofuran-2-yl)methoxy) (phenoxy)phosphorylamino)propanoate] |  | 0.02 | 
C[C@H](NP(=O)(OC[C@H]1O[C@@H](n2cnc3c(O)nc(N)nc32)[C@](C)(F)[C@@H]1O)Oc1ccccc1)C(=O)OC1CCCC1 (stereo partly drawn) [Compound 14, (2S)-cyclopentyl 2-((((2R,3R,4R,5R)-5-(2-amino-6-hydroxy-9H-purin-9-yl)-4-fluoro-3-hydroxy-4-methyltetrahydrofuran-2-yl)methoxy) (phenoxy)phosphorylamino)propanoate] |  | 0.13 | 133 to 150
